Laboratory results reported in US20180201592A1, “2-AMINO-1,3,4-THIADIAZINE AND 2-AMINO-1,3,4-OXADIAZINE BASED ANTIFUNGAL AGENTS” (F2G Limited, priority 2015, published 2018).

What was measured:
Details in all cases: banded MIC grade
[1] = tested on: Aspergillus fumigatus; assay: Minimum inhibitory concentration, YAG medium; assay type: cell-based
Description: (§1) Between 1 and 5 mgs of compound were accurately weighed out into a sterile Eppendorf tube. The compound was dissolved in DMSO to give a solution containing 5 mg/mL. Tubes were stored at −20° C. until required.
(§2) On the day of testing thawed solutions were vortex mixed to ensure homogeneity. 30 μL of solution was removed and added to 570 μL of sterile water in a separate sterile Eppendorf. The thoroughly mixed solution was used to prepare a series of doubling dilutions in water, in a deep well plate. Thirteen replicate plates were prepared using a Minitrak by aspirating 20 μL from each well into eleven clear polystyrene 96 well plates.
(§3) Spores of Aspergillus spp. (Aspergillus fumigatus [two strains], Aspergillus terreus [two strains], Aspergillus niger and Aspergillus flavus) were harvested from cultures grown on Sabarauds agar for 5 days, and resuspended in PBS/Tween 80 to approx 1×10^7 cfu/mL. Each organism suspension was diluted in YAG medium (1% glucose, 1% ammonium chloride and 0.5% yeast extract) to 0.5-2×10^4cfu/mL. 80 μL of an organism suspension was added to each well of the plate containing drug dilutions.
(§4) This typically produced MIC plates with a drug range 50-0.05 mg/L and organism inocula of 1-2×10^4 cfu/mL for Aspergillus spp. All plates were incubated for 24 hrs at 35° C. Growth was assessed by monitoring the optical density at 485 nm for each well. The MIC of a compound is the lowest drug concentration that inhibits growth of an organism by >70% compared with a drug free control. MICs are recorded as mg/L. In cases where the MIC of an organism is […] the MIC is repeated using a concentration range of 0.5-0.0005 mg/L.

[2] = tested on: A. fumigatus 210; assay: Minimum inhibitory concentration, YAG medium; assay type: cell-based, Aspergillus fumigatus
Description: as §1, §2, §3, §4

[3] = tested on: A. terreus 49; assay: Minimum inhibitory concentration, YAG medium; assay type: cell-based, Aspergillus terreus
Description: (§5) The compound was dissolved in DMSO to give a solution containing 5 mg/mL. Tubes were stored at −20° C. until required. On the day of testing thawed solutions were vortex mixed to ensure homogeneity. 30 μL of solution was removed and added to 570 μL of sterile water in a separate sterile Eppendorf. The thoroughly mixed solution was used to prepare a series of doubling dilutions in water, in a deep well plate. Thirteen replicate plates were prepared using a Minitrak by aspirating 20 μL from each well into eleven clear polystyrene 96 well plates. Spores of Aspergillus spp. […] All plates were incubated for 24 hrs at 35° C. Growth was assessed by monitoring the optical density at 485 nm for each well. […] MICs are recorded as mg/L.

[4] = tested on: Aspergillus flavus; assay: Minimum inhibitory concentration, YAG medium; assay type: cell-based
Description: as §5

[5] = tested on: Aspergillus niger; assay: Minimum inhibitory concentration, YAG medium; assay type: cell-based
Description: as §5

[6] = tested on: Aspergillus terreus; assay: Minimum inhibitory concentration, YAG medium; assay type: cell-based
Description: as §5

[7] = tested on: C. albicans; assay: Minimum inhibitory concentration, RPMI medium; assay type: cell-based
Description: as §5, with “Assays were also performed in RPMI medium (Roswell Park Memorial Media 1640). To perform MIC tests in this medium, dilutions” for “Spores”, “compounds are prepared in microtitre plates as described above.” for “Aspergillus spp.”, “24-48” for “24”, “The following organisms were tested: […]” for “MICs are recorded as mg/L.”

[8] = tested on: C. parapsilosis; assay: Minimum inhibitory concentration, RPMI medium; assay type: cell-based
Description: as §5, with “Assays were also performed in RPMI medium (Roswell Park Memorial Media 1640). To perform MIC tests in this medium, dilutions” for “Spores”, “compounds are prepared in microtitre plates as described above.” for “Aspergillus spp.”, “24-48” for “24”, “The following organisms were tested: […]” for “MICs are recorded as mg/L.”

[9] = tested on: C. tropicalis; assay: Minimum inhibitory concentration, RPMI medium; assay type: cell-based
Description: as §5, with “Assays were also performed in RPMI medium (Roswell Park Memorial Media 1640). To perform MIC tests in this medium, dilutions” for “Spores”, “compounds are prepared in microtitre plates as described above.” for “Aspergillus spp.”, “24-48” for “24”, “The following organisms were tested: […]” for “MICs are recorded as mg/L.”

Structure (SMILES) | MIC grade, A. FUMIGATUS, YAG media [1] | MIC grade, A. FUMIGATUS 210, YAG media [2] | MIC grade, A. TERREUS 49, YAG media [3] | MIC grade, A. FLAVUS, YAG media [4] | MIC grade, A. NIGER, YAG media [5] | MIC grade, A. TERREUS, YAG media [6] | MIC grade, C. ALBICANS, RPMI media [7] | MIC grade, C. PARAPSILOSIS, RPMI media [8] | MIC grade, C. TROPICALIS, RPMI media [9]
NC1=NN=C(CCOc2ccc(-c3ccccc3)cc2)CS1 | 1 (1: ≥5 mg/L) | 1 (1: ≥5 mg/L) | 2 (2: 1-5 mg/L) | 2 (2: 1-5 mg/L) | 2 (2: 1-5 mg/L) | 2 (2: 1-5 mg/L) | 1 (1: ≥20 mg/L) | 1 (1: ≥20 mg/L) | 1 (1: ≥20 mg/L)
COCCCCC1=NN=C(N)SC1 | 3 (3: 0.2-1 mg/L) | 4 (4: <0.2 mg/L) | 3 (3: 0.2-1 mg/L) | 3 (3: 0.2-1 mg/L) | 3 (3: 0.2-1 mg/L) | 3 (3: 0.2-1 mg/L) | 3 (3: 1-5 mg/L) | 4 (4: <1 mg/L) | 3 (3: 1-5 mg/L)
NC1=NN=C(CCCCOc2ccccc2)CS1 | 3 (3: 0.2-1 mg/L) | 3 (3: 0.2-1 mg/L) | 4 (4: <0.2 mg/L) | 4 (4: <0.2 mg/L) | 4 (4: <0.2 mg/L) | 4 (4: <0.2 mg/L) | 4 (4: <1 mg/L) | 4 (4: <1 mg/L) | 3 (3: 1-5 mg/L)
NC1=NN=C(CCCCCc2ccccn2)CS1 | 3 (3: 0.2-1 mg/L) | 4 (4: <0.2 mg/L) | 4 (4: <0.2 mg/L) | 3 (3: 0.2-1 mg/L) | 4 (4: <0.2 mg/L) | 3 (3: 0.2-1 mg/L) | 2 (2: 5-20 mg/L) | 3 (3: 1-5 mg/L) | 2 (2: 5-20 mg/L)
CN(CCCCCC1=NN=C(N)SC1)c1ccccc1 | 2 (2: 1-5 mg/L) | 2 (2: 1-5 mg/L) | 3 (3: 0.2-1 mg/L) | 3 (3: 0.2-1 mg/L) | 3 (3: 0.2-1 mg/L) | 3 (3: 0.2-1 mg/L) | 1 (1: ≥20 mg/L) | 2 (2: 5-20 mg/L) | 1 (1: ≥20 mg/L)
COCCCCCCC1=NN=C(N)SC1 | 4 (4: <0.2 mg/L) | 4 (4: <0.2 mg/L) | 4 (4: <0.2 mg/L) | 4 (4: <0.2 mg/L) | 4 (4: <0.2 mg/L) | 4 (4: <0.2 mg/L) | 4 (4: <1 mg/L) | 4 (4: <1 mg/L) | 3 (3: 1-5 mg/L)
